# In US11117919B2, “Icariside compound, preparation method thereof, and application thereof” (FOSHAN GOLDEN HEALTH TECHNOLOGY CO., LTD., priority 2015, dated 2021):
# “Also recorded” adds a separate entry of the source.
# Experiments:
# [1] = test system: normal human peripheral blood mononuclear cells (PBMCs); assay: IFN-γ production by PBMCs stimulated with Anti-CD3 (ELISA); format: cell-based; details: PBMCs treated with anti-CD3 (1 μg/ml); icariside I 1, 10, 100 ng/ml; 12-48 h; time and dose dependent
# Experimental: Effect of icariside I on promoting normal human peripheral blood mononuclear cells (PBMCs subjected to mAb treatment) to produce γ-interferon (interferon-gamma, IFN-γ) (an experimental model mimicking enhancing immunity in human body).
# (1) Preparation of icariside I solution for the test. 10 mg icariside I was dissolved in 1 ml DMSO (with initial concentration of 10 mg/ml). The solution was then transferred into small vials and stored in a freezer at −80° C. for future use.
# The whole blood samples were drawn from peripheral vein of healthy volunteers. Heparin (blood:heparin=10 ml: 80 μl) was used for anticoagulation. Then, it is diluted with equal volume of Hank's solution. The diluted blood samples were slowly laid on the Ficoll separation solution (Ficoll to diluted blood ratio is 3:4) followed by Ficoll density gradient centrifugation (22° C. 2200 r/min, 20 min). After centrifugation, samples were divided into three layers in the tube. At the interface between the top and middle layers, there was a narrow band which is a mononuclear cell-based yellow-white cloud layer. The peripheral blood mononuclear cells (PBMCs) were drawn and transferred into another centrifuge tube with a pipette. […] The mononuclear cells were counted with trypan blue solution. […]
# The collected cell culture supernatants with different culture time were detected with ELISA to measure the amount of cytokine IFN-γ produced. […]
# [2] = test system: human peripheral blood mononuclear cells (PBMCs); assay: Immunological screening model: IFN-γ produced in human PBMCs; format: cell-based
# From the text: The present inventors have long been researching the active components in traditional Chinese herbal medicine and their applications in immunotherapy. The present inventors have established an immunological test model based on determination of the level of IFN-γ produced in human peripheral blood mononuclear cells (PBMCs). By this model, compounds having promotion (or inhibition) effects on human peripheral blood mononuclear cells (PBMCs) to produce γ-interferon can be screened out from chemical components from various sources including traditional Chinese herbal medicine, medicinal plants and so on. Since the γ-Interferon is an important protein (cytokine) in human body's immune system to resist attacks from diseases, its production level in body directly relates to the body's immunity. Therefore, the model is an ideal tool to screen and find functional pharmaceuticals for improving human immunity.
# In addition, all the results and achievements of the present invention are based on the very effective screening model established by the present inventors. Therefore, a further objective of the present invention is to provide an experimental model for screening substances having impacts (either enhance or inhibit) on immunity. […] Finally, by using ELISA techniques, the levels of IFN-γ produced in the culture were measured at different incubation time. […]
compound,measurement,setting,value
COc1ccc(-c2oc3c(CC=C(C)C)c(O[C@@H]4O[C@H](CO)[C@@H](O)[C@H](O)[C@H]4O)cc(O)c3c(=O)c2O)cc1 [icariside I],IFN-γ level produced by PBMCs,[1],significantly enhanced; also recorded: significantly increased
same,effect in promoting PBMCs to generate IFN-γ,[2],significant effect
